Calls of active or inactive are those of the source. The rule behind the calls is not given here.
Assays:
MDCK = assay: Cytotoxicity against MDCK cells assessed as reduction in cell viability incubated for 72 hrs by MTT assay; format: cell-based, Canis lupus familiaris; conditions: dog, mdck, 72 h
[1] = system: Vesicular stomatitis virus; assay: Antiviral activity against Vesicular stomatitis virus Indiana infected in A549 cells assessed as reduction in virus titer preincubated for 24 hrs followed by viral infection and measured after 72 hrs by microscopic analysis; format: functional, organism-based
A549 = assay: Cytotoxicity against human A549 cells assessed as reduction in cell viability incubated for 48 hrs by MTT assay; format: cell-based; conditions: a549, 48 h
Enterovirus E = assay: Antiviral activity against Enterovirus E LCR-4 infected in A549 cells assessed as inhibition of viral adsorption at early stage of replication treated for 1 hr during viral infection followed by replacement with fresh medium and measured after 72 hrs by MTT assay; format: functional, organism-based
Human adenovirus 5 [2] = assay: Antiviral activity against Human adenovirus 5 Adenoid 75 infected in A549 cells assessed as inhibition of viral adsorption at early stage of replication treated for 1 hr during viral infection followed by replacement with fresh medium and measured after 72 hrs by MTT assay; format: functional, organism-based
Human adenovirus 5 [3] = assay: Antiviral activity against Human adenovirus 5 Adenoid 75 infected in A549 cells assessed as reduction in virus titer preincubated for 24 hrs followed by viral infection and measured after 72 hrs by microscopic analysis; format: functional, organism-based
Human alphaherpesvirus 1 [4] = assay: Antiviral activity against Human herpesvirus-1 MacIntyre infected in A549 cells assessed as inhibition of viral adsorption at early stage of replication treated for 1 hr during viral infection followed by replacement with fresh medium and measured after 48 hrs by MTT assay; format: functional, organism-based
Human alphaherpesvirus 1 [5] = assay: Antiviral activity against Human herpesvirus 1 MacIntyre infected in A549 cells assessed as reduction in virus titer preincubated for 24 hrs followed by viral infection and measured after 72 hrs by microscopic analysis; format: functional, organism-based

SMILES | CC20 (MDCK) [µM] | Activity [1] | CC20 (A549) [µM] | Activity (Enterovirus E) | Activity (Human adenovirus 5 [2]) | Activity (Human adenovirus 5 [3]) | Activity (Human alphaherpesvirus 1 [4]) | Activity (Human alphaherpesvirus 1 [5])
C#CC1(NC(=O)c2cccc(C(=O)OC[C@]34CC[C@@H](C(=C)C)[C@@H]3[C@H]3CC[C@@H]5[C@@]6(C)CC[C@H](O)C(C)(C)[C@@H]6CC[C@@]5(C)[C@]3(C)CC4)c2)CCCCC1 | 104.82 | inactive | 104.82 | inactive | inactive | inactive | inactive | inactive
C#CC1(NC(=O)CCCCCCCCCC(=O)OC[C@]23CC[C@@H](C(=C)C)[C@@H]2[C@H]2CCC4[C@@]5(C)CC[C@H](O)C(C)(C)[C@@H]5CC[C@@]4(C)[C@]2(C)CC3)CCCCC1 (single isomer, unassigned) | 102.46 | inactive | 102.46 | inactive | inactive | inactive | inactive | inactive
C#CC1(NC(=O)CCCC(=O)OC[C@]23CCC(C(=C)C)[C@@H]2[C@H]2CC[C@@H]4[C@@]5(C)CC[C@H](O)C(C)(C)[C@@H]5CC[C@@]4(C)[C@]2(C)CC3)CCCCC1 (single isomer, unassigned) | 108.7 | inactive | 108.7 | inactive | inactive | inactive | inactive | inactive
C=C(C)[C@@H]1CC[C@]2(COC(=O)c3cccc(C(=O)N4CCSCC4)c3)CC[C@]3(C)[C@H](CC[C@@H]4[C@@]5(C)CC[C@H](O)C(C)(C)[C@@H]5CC[C@]43C)C12 (single isomer, unassigned) | 117.79 | inactive | 117.79 | inactive | inactive | inactive | inactive | inactive
C=C(C)[C@@H]1CC[C@]2(COC(=O)c3ccccc3C(=O)O)CC[C@]3(C)[C@H](CC[C@@H]4[C@@]5(C)CC[C@H](O)C(C)(C)[C@@H]5CC[C@]43C)[C@@H]12 | 42.3 | inactive | 21.15 | inactive | inactive | inactive | inactive | inactive
C#CCNC(=O)CCC(=O)OC[C@]12CC[C@@H](C(=C)C)C1[C@H]1CC[C@@H]3[C@@]4(C)CC[C@H](O)C(C)(C)[C@@H]4CC[C@@]3(C)[C@]1(C)CC2 (single isomer, unassigned) | 5.34 | inactive | 10.78 | inactive | inactive | inactive | inactive | inactive
C=C(C)[C@@H]1CCC2(COC(=O)CCCCCCCCCC(=O)N3CCSCC3)CC[C@]3(C)[C@H](CC[C@@H]4[C@@]5(C)CC[C@H](O)C(C)(C)[C@@H]5CC[C@]43C)[C@@H]12 (single isomer, unassigned) | 114.81 | inactive | 114.81 | inactive | inactive | inactive | inactive | inactive
C=C(C)[C@@H]1CC[C@]2(COC(=O)/C=C/C(=O)O)CC[C@]3(C)[C@H](CC[C@@H]4[C@@]5(C)CC[C@H](O)C(C)(C)[C@@H]5CC[C@]43C)[C@@H]12 | 5.73 | inactive | 11.55 | inactive | inactive | inactive | inactive | inactive

From ChEMBL document CHEMBL4831514, “Novel betulin dicarboxylic acid ester derivatives as potent antiviral agents: Design, synthesis, biological evaluation, structure-activity relationship and in-silico study” (Eur J Med Chem, 2021)
